From ChEMBL document CHEMBL1144625, “A new platinum complex of triazine demonstrates G1 arrest with novel biological profile in human breast cancer cell line, MDA-MB-468” (Bioorg Med Chem Lett, 2007)

System: MDA-MB-468
Assay: Antiproliferative activity against MDA-MB-468 cells by MTT assay
Assay type: functional, cell-based
Details: Homo sapiens

c1ccc(Sc2nc(N3CC3)nc(N3CC3)n2)nc1
IC50: > 100 µM

c1ccc(Sc2nc(N3CCSCC3)nc(N3CCSCC3)n2)nc1
IC50: > 100 µM

c1ccc(Sc2nc(N3CCOCC3)nc(N3CCOCC3)n2)nc1
IC50: > 100 µM
